Legend:
Conditions in all cases: three weeks after treatment
Alopecurus myosuroides [1] = assay: Pre-emergence herbicidal evaluation, ALOMY; format: in vivo
Excerpt: (§1) The treated pots are then placed on greenhouse benches, watered and cared for in accordance with conventional greenhouse procedures.

Triticum aestivum [2] = assay: Pre-emergence herbicidal evaluation, TRZAW; format: in vivo
Excerpt: as §1

Zea mays [3] = assay: Post-emergence herbicidal evaluation, ZEAMX
Experimental: (§2) Each pot is examined three weeks after treatment and phytotoxicity is assessed according to the rating system set forth below.
(§3) These acetone solutions are diluted with water and the resulting formulations applied at dosage levels equivalent of about 0.4 to 0.1 kg per hectare of test compound per pot. After spraying the plants are placed on greenhouse benches and are cared for in the usual manner, commensurate with conventional greenhouse practices.

Lolium perenne [4] = assay: Pre-emergence herbicidal evaluation, LOLPE; format: in vivo
Excerpt: as §1

Apera spica venti [5] = assay: Post-emergence herbicidal evaluation, APESV
Oryza sativum [6] = assay: Pre-emergence herbicidal evaluation, ORYSA; format: in vivo
Excerpt: as §1

Alopecurus myosuroides [7] = assay: Post-emergence herbicidal evaluation, ALOMY
Triticum aestivum [8] = assay: Post-emergence herbicidal evaluation, TRZAW
Experimental: as §2, §3

Amaranthus tuberculatus [9] = assay: Post-emergence herbicidal evaluation, AMATA; format: in vivo
Glycine max [10] = assay: Pre-emergence herbicidal evaluation, GLXMA; format: in vivo
Excerpt: as §1

Galium aparine [11] = assay: Post-emergence herbicidal evaluation, GALAP
Echinochloa crus-galli [12] = assay: Post-emergence herbicidal evaluation, ECHCG
Experimental: (§4) The compounds of the invention are tested for pre- and post-emergence herbicidal activity.
as §2, §3

Setaria viridis [13] = assay: Post-emergence herbicidal evaluation, SETVI
Experimental: as §4, §2, §3

Setaria viridis [14] = assay: Pre-emergence herbicidal evaluation, SETVI; format: in vivo
Excerpt: as §1

Oryza sativum [15] = assay: Post-emergence herbicidal evaluation, ORYSA
Amaranthus tuberculatus [16] = assay: Pre-emergence herbicidal evaluation, AMATA; format: in vivo
Excerpt: as §1

Galium aparine [17] = assay: Pre-emergence herbicidal evaluation, GALAP; format: in vivo
Excerpt: as §1

Glycine max [18] = assay: Post-emergence herbicidal evaluation, GLXMA
Experimental: as §2, §3

Lolium perenne [19] = assay: Post-emergence herbicidal evaluation, LOLPE
Echinochloa crus-galli [20] = assay: Pre-emergence herbicidal evaluation, ECHCG; format: in vivo
Excerpt: as §1

Hordeum vulgare [21] = assay: Pre-emergence herbicidal evaluation, HORVW; format: in vivo
Excerpt: as §1

Apera spica venti [22] = assay: Pre-emergence herbicidal evaluation, APESV; format: in vivo
Excerpt: as §1

Zea mays [23] = assay: Pre-emergence herbicidal evaluation, ZEAMX; format: in vivo
Excerpt: as §1

Hordeum vulgare [24] = assay: Post-emergence herbicidal evaluation, HORVW

CCN(C(=O)COc1nc2ccccc2o1)C1=CC(C)(C)CC(C)=C1 [Example 2]
phytotoxicity rating ALOMY (Alopecurus myosuroides [1]; 0.100 kg/ha): 1 (1 - Trace effect) | phytotoxicity rating ALOMY (Alopecurus myosuroides [1]; 0.200 kg/ha): 5 (5 - Definite injury) | phytotoxicity rating ALOMY (Alopecurus myosuroides [1]; 0.400 kg/ha): 6 (6 - Herbicidal effect) | phytotoxicity rating ALOMY (Alopecurus myosuroides [1]; 0.800 kg/ha): 6 (6 - Herbicidal effect) | phytotoxicity rating TRZAW (Triticum aestivum [2]; 0.100 kg/ha): 0 (0 - No effect) | phytotoxicity rating TRZAW (Triticum aestivum [2]; 0.200 kg/ha): 0 (0 - No effect) | phytotoxicity rating TRZAW (Triticum aestivum [2]; 0.400 kg/ha): 2 (2 - Slight effect) | phytotoxicity rating TRZAW (Triticum aestivum [2]; 0.800 kg/ha): 2 (2 - Slight effect) | phytotoxicity rating ZEAMX (Zea mays [3]; 0.100 kg/ha): 0 (0 - No effect) | phytotoxicity rating ZEAMX (Zea mays [3]; 0.200 kg/ha): 0 (0 - No effect) | phytotoxicity rating ZEAMX (Zea mays [3]; 0.400 kg/ha): 0 (0 - No effect) | phytotoxicity rating LOLPE (Lolium perenne [4]; 0.100 kg/ha): 0 (0 - No effect) | phytotoxicity rating LOLPE (Lolium perenne [4]; 0.200 kg/ha): 2 (2 - Slight effect) | phytotoxicity rating LOLPE (Lolium perenne [4]; 0.400 kg/ha): 8 (8 - Approaching complete kill) | phytotoxicity rating LOLPE (Lolium perenne [4]; 0.800 kg/ha): 9 (9 - Complete kill) | phytotoxicity rating APESV (Apera spica venti [5]; 0.100 kg/ha): 6 (6 - Herbicidal effect) | phytotoxicity rating APESV (Apera spica venti [5]; 0.200 kg/ha): 7 (7 - Good herbicidal effect) | phytotoxicity rating APESV (Apera spica venti [5]; 0.400 kg/ha): 7 (7 - Good herbicidal effect) | phytotoxicity rating ORYSA (Oryza sativum [6]; 0.100 kg/ha): 0 (0 - No effect) | phytotoxicity rating ORYSA (Oryza sativum [6]; 0.200 kg/ha): 0 (0 - No effect) | phytotoxicity rating ORYSA (Oryza sativum [6]; 0.400 kg/ha): 0 (0 - No effect) | phytotoxicity rating ORYSA (Oryza sativum [6]; 0.800 kg/ha): 2 (2 - Slight effect) | phytotoxicity rating ALOMY (Alopecurus myosuroides [7]; 0.100 kg/ha): 0 (0 - No effect) | phytotoxicity rating ALOMY (Alopecurus myosuroides [7]; 0.200 kg/ha): 4 (4 - Injury) | phytotoxicity rating ALOMY (Alopecurus myosuroides [7]; 0.400 kg/ha): 7 (7 - Good herbicidal effect) | phytotoxicity rating TRZAW (Triticum aestivum [8]; 0.100 kg/ha): 0 (0 - No effect) | phytotoxicity rating TRZAW (Triticum aestivum [8]; 0.200 kg/ha): 0 (0 - No effect) | phytotoxicity rating TRZAW (Triticum aestivum [8]; 0.400 kg/ha): 1 (1 - Trace effect) | phytotoxicity rating AMATA (Amaranthus tuberculatus [9]; 0.100 kg/ha): 5 (5 - Definite injury) | phytotoxicity rating AMATA (Amaranthus tuberculatus [9]; 0.200 kg/ha): 6 (6 - Herbicidal effect) | phytotoxicity rating AMATA (Amaranthus tuberculatus [9]; 0.400 kg/ha): 6 (6 - Herbicidal effect) | phytotoxicity rating GLXMA (Glycine max [10]; 0.100 kg/ha): 0 (0 - No effect) | phytotoxicity rating GLXMA (Glycine max [10]; 0.200 kg/ha): 0 (0 - No effect) | phytotoxicity rating GLXMA (Glycine max [10]; 0.400 kg/ha): 0 (0 - No effect) | phytotoxicity rating GLXMA (Glycine max [10]; 0.800 kg/ha): 0 (0 - No effect) | phytotoxicity rating GALAP (Galium aparine [11]; 0.100 kg/ha): 0 (0 - No effect) | phytotoxicity rating GALAP (Galium aparine [11]; 0.200 kg/ha): 2 (2 - Slight effect) | phytotoxicity rating GALAP (Galium aparine [11]; 0.400 kg/ha): 3 (3 - Moderate effect) | phytotoxicity rating ECHCG (Echinochloa crus-galli [12]; 0.100 kg/ha): 1 (1 - Trace effect) | phytotoxicity rating ECHCG (Echinochloa crus-galli [12]; 0.200 kg/ha): 2 (2 - Slight effect) | phytotoxicity rating ECHCG (Echinochloa crus-galli [12]; 0.400 kg/ha): 8 (8 - Approaching complete kill) | phytotoxicity rating SETVI (Setaria viridis [13]; 0.100 kg/ha): 0 (0 - No effect) | phytotoxicity rating SETVI (Setaria viridis [13]; 0.200 kg/ha): 2 (2 - Slight effect) | phytotoxicity rating SETVI (Setaria viridis [13]; 0.400 kg/ha): 6 (6 - Herbicidal effect) | phytotoxicity rating SETVI (Setaria viridis [14]; 0.100 kg/ha): 1 (1 - Trace effect) | phytotoxicity rating SETVI (Setaria viridis [14]; 0.200 kg/ha): 4 (4 - Injury) | phytotoxicity rating SETVI (Setaria viridis [14]; 0.400 kg/ha): 7 (7 - Good herbicidal effect) | phytotoxicity rating SETVI (Setaria viridis [14]; 0.800 kg/ha): 8 (8 - Approaching complete kill) | phytotoxicity rating ORYSA (Oryza sativum [15]; 0.100 kg/ha): 0 (0 - No effect) | phytotoxicity rating ORYSA (Oryza sativum [15]; 0.200 kg/ha): 0 (0 - No effect) | phytotoxicity rating ORYSA (Oryza sativum [15]; 0.400 kg/ha): 1 (1 - Trace effect) | phytotoxicity rating AMATA (Amaranthus tuberculatus [16]; 0.100 kg/ha): 2 (2 - Slight effect) | phytotoxicity rating AMATA (Amaranthus tuberculatus [16]; 0.200 kg/ha): 6 (6 - Herbicidal effect) | phytotoxicity rating AMATA (Amaranthus tuberculatus [16]; 0.400 kg/ha): 8 (8 - Approaching complete kill) | phytotoxicity rating AMATA (Amaranthus tuberculatus [16]; 0.800 kg/ha): 8 (8 - Approaching complete kill) | phytotoxicity rating GALAP (Galium aparine [17]; 0.100 kg/ha): 0 (0 - No effect) | phytotoxicity rating GALAP (Galium aparine [17]; 0.200 kg/ha): 0 (0 - No effect) | phytotoxicity rating GALAP (Galium aparine [17]; 0.400 kg/ha): 0 (0 - No effect) | phytotoxicity rating GALAP (Galium aparine [17]; 0.800 kg/ha): 0 (0 - No effect) | phytotoxicity rating GLXMA (Glycine max [18]; 0.100 kg/ha): 5 (5 - Definite injury) | phytotoxicity rating GLXMA (Glycine max [18]; 0.200 kg/ha): 7 (7 - Good herbicidal effect) | phytotoxicity rating GLXMA (Glycine max [18]; 0.400 kg/ha): 7 (7 - Good herbicidal effect) | phytotoxicity rating LOLPE (Lolium perenne [19]; 0.100 kg/ha): 5 (5 - Definite injury) | phytotoxicity rating LOLPE (Lolium perenne [19]; 0.200 kg/ha): 7 (7 - Good herbicidal effect) | phytotoxicity rating LOLPE (Lolium perenne [19]; 0.400 kg/ha): 8 (8 - Approaching complete kill) | phytotoxicity rating ECHCG (Echinochloa crus-galli [20]; 0.100 kg/ha): 3 (3 - Moderate effect) | phytotoxicity rating ECHCG (Echinochloa crus-galli [20]; 0.200 kg/ha): 5 (5 - Definite injury) | phytotoxicity rating ECHCG (Echinochloa crus-galli [20]; 0.400 kg/ha): 8 (8 - Approaching complete kill) | phytotoxicity rating ECHCG (Echinochloa crus-galli [20]; 0.800 kg/ha): 9 (9 - Complete kill) | phytotoxicity rating HORVW (Hordeum vulgare [21]; 0.100 kg/ha): 0 (0 - No effect) | phytotoxicity rating HORVW (Hordeum vulgare [21]; 0.200 kg/ha): 2 (2 - Slight effect) | phytotoxicity rating HORVW (Hordeum vulgare [21]; 0.400 kg/ha): 2 (2 - Slight effect) | phytotoxicity rating HORVW (Hordeum vulgare [21]; 0.800 kg/ha): 3 (3 - Moderate effect) | phytotoxicity rating APESV (Apera spica venti [22]; 0.100 kg/ha): 1 (1 - Trace effect) | phytotoxicity rating APESV (Apera spica venti [22]; 0.200 kg/ha): 6 (6 - Herbicidal effect) | phytotoxicity rating APESV (Apera spica venti [22]; 0.400 kg/ha): 9 (9 - Complete kill) | phytotoxicity rating APESV (Apera spica venti [22]; 0.800 kg/ha): 9 (9 - Complete kill) | phytotoxicity rating ZEAMX (Zea mays [23]; 0.100 kg/ha): 0 (0 - No effect) | phytotoxicity rating ZEAMX (Zea mays [23]; 0.200 kg/ha): 0 (0 - No effect) | phytotoxicity rating ZEAMX (Zea mays [23]; 0.400 kg/ha): 0 (0 - No effect) | phytotoxicity rating ZEAMX (Zea mays [23]; 0.800 kg/ha): 1 (1 - Trace effect) | phytotoxicity rating HORVW (Hordeum vulgare [24]; 0.100 kg/ha): 1 (1 - Trace effect) | phytotoxicity rating HORVW (Hordeum vulgare [24]; 0.200 kg/ha): 2 (2 - Slight effect) | phytotoxicity rating HORVW (Hordeum vulgare [24]; 0.400 kg/ha): 2 (2 - Slight effect)
